From patent US5064947A (priority 1990, dated 1991)
Like-named read-outs stand apart in the source and are kept apart here.

What was measured:
[1] = target: T1, adenosine A-2 receptors (Rattus norvegicus, UniProt P30543); assay: Affinity for brain adenosine A-2 receptors ([3H]NECA displacement, rat brain striatum membranes); format: binding
T1 construct: from tissue; host or cells: striatal membranes of young male rats (C-D strain, from Charles River)
Protocol: The pellet is finally resuspended in 40 vol. of 50mM Tris-HCl (pH 7.7) per gram of original wet weight of tissue.
Incubations are carried out at 25° C. for 60 minutes. Each tube is filtered through GF/B glass fiber filters using a vacuum. The filters are rinsed two times with 5 ml of the ice-cold buffer. […] The filters are counted by liquid scintillation spectrometry.
Specific binding of [3H]NECA is measured as the excess over blanks run in the presence of 100 μM 2-chloroadenosine. […] Specific binding to membranes is about 50% of the total bound.

[2] = system: A-1 receptors; settings: cited from earlier work
[3] = system: A-2 receptors; settings: cited from earlier work
[4] = target: T2, Adenosine A-1 receptor (Rattus norvegicus, UniProt P25099)
T2 sequence (P25099 1-326): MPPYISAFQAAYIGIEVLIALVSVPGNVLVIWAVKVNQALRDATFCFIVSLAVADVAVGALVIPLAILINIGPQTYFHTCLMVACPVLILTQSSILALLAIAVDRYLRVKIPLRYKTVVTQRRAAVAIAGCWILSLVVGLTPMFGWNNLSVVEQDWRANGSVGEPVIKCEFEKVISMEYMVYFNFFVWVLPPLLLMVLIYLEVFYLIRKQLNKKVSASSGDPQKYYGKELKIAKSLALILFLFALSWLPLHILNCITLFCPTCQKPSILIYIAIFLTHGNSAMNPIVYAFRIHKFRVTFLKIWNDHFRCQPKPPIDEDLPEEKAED

[5] = in vivo; cited from earlier work
[6] = ratio of A-2 Ki to A-1 Ki (selectivity)

T1 sequence (P30543 whole entry): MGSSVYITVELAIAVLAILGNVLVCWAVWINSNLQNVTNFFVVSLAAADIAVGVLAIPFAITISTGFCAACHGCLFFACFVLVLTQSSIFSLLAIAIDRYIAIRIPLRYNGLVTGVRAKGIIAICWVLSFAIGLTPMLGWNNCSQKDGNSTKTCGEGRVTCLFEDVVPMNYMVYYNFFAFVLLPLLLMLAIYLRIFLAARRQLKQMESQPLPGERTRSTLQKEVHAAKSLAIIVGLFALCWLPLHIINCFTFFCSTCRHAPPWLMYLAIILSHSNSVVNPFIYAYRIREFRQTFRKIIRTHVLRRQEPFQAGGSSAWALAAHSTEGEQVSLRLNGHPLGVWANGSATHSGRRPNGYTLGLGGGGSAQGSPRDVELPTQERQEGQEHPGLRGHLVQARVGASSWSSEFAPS

Question: Which “A-2 Ki/A-1 Ki” value [1, 6] does the source give for C1=Nc2c(cnn2-c2ccccc2)C2=N[C@H](Cc3ccccc3)CN12 [Compound 3, (R)-2,7-dihydro-7-phenyl-2-(phenylmethyl)-3H-imidazo[1,2-c]pyrazolo[4,3-e]pyrimidine] here?
Answer: Its value is 13.20.

Question: Which adenosine receptor selectivity ([2]; A-1 vs A-2, in vitro) does the source give for CCCn1c(=O)c2[nH]c(-c3ccc(OCC(=O)O)cc3)nc2n(CCC)c1=O [XCC, carboxylic acid congener of 8-phenyl-1,3-dipropyl-xanthine] here?
Answer: The adenosine receptor selectivity was “non-selective”.

Question: With C1=Nc2c(ncn2-c2ccccc2)C2=N[C@H](Cc3ccccc3)CN12 [Compound 6, (R)-7,8-dihydro-3-phenyl-8-(phenylmethyl)-3H-diimidazo[1,2-c:4',5'-e]pyrimidine] as the molecule, how does the “A-2 Ki/A-1 Ki” value [1] read?
Answer: Its value is 16.40.

Question: Which “order of potency at A-2 receptors” value [3] does the source give for CCNC(=O)[C@H]1O[C@@H](n2cnc3c(N)ncnc32)[C@H](O)[C@@H]1O [NECA, N-5'-ethylcarboxamidoadenosine] here?
Answer: The value was “NECA>2-chloroadenosine>R-PIA>CHA”.

Question: With CCCOC1=Nc2c(cnn2-c2ccccc2)C2=N[C@H](C)[C@@H](c3ccccc3)N12 [Compound 7, (2R-trans)-2,7-dihydro-2-methyl-3,7-diphenyl-5-propoxy-3H-Imidazo[1,2-c]pyrazolo[4,3-e]pyrimidine] as the molecule, how does the “A-2 Ki/A-1 Ki” value [1, 6] read?
Answer: The value was 1.17.

Question: For CCCOC1=Nc2c(ncn2-c2ccccc2)C2=N[C@@H](Cc3ccccc3)CN12 [Compound 12, (S)-7,8-dihydro-3-phenyl-8-(phenylmethyl)-5-propoxy-3H-diimidazo[1,2-c:4',5'-e]pyrimidine], which Ki ([1]; [3H]NECA, rat brain striatum membranes, 25° C., 60 minutes, read-out: A-2 Receptor Ki) is on record?
Answer: Its Ki is 1.6 µM.

Question: And the “A-2 Ki/A-1 Ki” value [1, 6]?
Answer: The value was 0.18.

Question: What about the Ki [4] of the same molecule?
Answer: The Ki was 9 µM.

Question: Which “order of potency at A-2 receptors” value [3] does the source give for Nc1nc(Cl)nc2c1ncn2[C@@H]1O[C@H](CO)[C@@H](O)[C@H]1O [2-chloroadenosine] here?
Answer: Its value is “NECA>2-chloroadenosine>R-PIA>CHA”.

Question: With OC[C@H]1O[C@@H](n2cnc3c2N=CN2C[C@H](Cc4ccccc4)N=C32)[C@H](O)[C@@H]1O [Compound 13, (S)-7,8-dihydro-3-(β-D-ribofuranosyl)-8-(phenylmethyl)-3H-diimidazo[1,2-c:4',5'-e]pyrimidine] as the molecule, how does the “A-2 Ki/A-1 Ki” value [1] read?
Answer: Its value is 1.70.

Question: With OC[C@H]1O[C@@H](n2cnc3c2N=CN2C[C@@H](Cc4ccccc4)N=C32)[C@H](O)[C@@H]1O [Compound 14, (R)-7,8-dihydro-3-(β-D-ribofuranosyl)-8-(phenylmethyl)-3H-diimidazo[1,2-c:4',5'-e]pyrimidine] as the molecule, how does the “A-2 Ki/A-1 Ki” value [1] read?
Answer: Its value is 5.50.

Question: What does the source list for CCCn1c(=O)c2[nH]c(-c3ccc(OCC(=O)NCCN)cc3)nc2n(CCC)c1=O [XAC, amino congener of 8-phenyl-1,3-dipropyl-xanthine]?
Answer: antagonizing the effects of adenosine analogs on heart rate versus blood pressure [5]: much more potent in antagonizing the effects of adenosine analogs on heart rate than on blood pressure; higher affinity for A-1 adenosine receptors vs A-2 ([2]; A-1 brain membranes versus A-2 brain slice assay): 40 fold

Question: With CCCOC1=Nc2c(cnn2-c2ccccc2)C2=N[C@@H](Cc3ccccc3)CN12 [Compound 2, (S)-2,7-dihydro-7-phenyl-2-(phenylmethyl)-5-propoxy-3H-imidazo[1,2-c]pyrazolo[4,3-e]pyrimidine] as the molecule, how does the “A-2 Ki/A-1 Ki” value [1, 6] read?
Answer: Its value is 0.18.
